Assay results reported in patent US12564638B2 (SHANGHAITECH UNIVERSITY, priority 2019, dated 2026).
Read-outs that look alike come from different tables or passages of the source.

Key:
Format in all cases: cell-based
[1] = tested on: HCC827 cells (EGFR Exon19 del, non-small cell lung cancer cells); assay: Cell viability assay (WST/CCK8), HCC827 cells; settings: Homo sapiens, HCC827, 72 h, 72 hours, read-out: IC50 (half inhibitory concentration)
Summary of the method: (§1)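 Plated 3 000 cells/well in complete RPMI1640 the day before dosing; controls were DMSO (negative) and EGFR TKIs (positive).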

[2] = tested on: PC9 cells (EGFR Exon 19 del, non-small cell lung cancer cells); assay: Cell viability assay (WST/CCK8), PC9 cells; settings: Homo sapiens, PC-9, 72 hours, read-out: IC50 (half inhibitory concentration)
Summary of the method: as §1

[3] = tested on: H1975 (EGFR T790M+L858R mutation, non-small cell lung cancer cell line); assay: Cell viability assay (WST/CCK8), H1975 cells; settings: Homo sapiens, NCI-H1975, read-out: IC50 (half inhibitory concentration)
Excerpt: (§2) The cell lines with abnormal EGFR expression used are as follows: • HCC827 cells (EGFR Exon19 del, non-small cell lung cancer cells); • PC9 cells (EGFR Exon 19 del, non-small cell lung cancer cells); • PC9BracA1 (EGFR Exon 19 del+T790M, non-small cell lung cancer cells) • H1975 (EGFR Exon T790M+L858R mutation, non-small cell lung cancer cell line) • BT474 cells (HER2 positive breast cancer cells)
(§3) All of the half inhibitory concentrations (IC50) of these compounds of the present invention were determined with WST reagent from Fuyuan Biotec Company. The specific experiment procedures are as follows: Cancer cells were planted in 96-well-plate at the density of 3 000 cells per well with 100 μL RPMI1640 completed culture medium. In the next day, compounds with indicated concentrations were added to the cells, DMSO was used as the negative control and the EGFR TKIs were used to treat cells as the positive groups. After 72 hours drug treatment, cell viability was measured by using the WST reagent following the instructions.

[4] = tested on: PC9BracA1 (EGFR Exon 19 del+T790M, non-small cell lung cancer cells); assay: Cell viability assay (WST/CCK8), PC9Brac1 cells; settings: read-out: IC50 (half inhibitory concentration)
Excerpt: as §2, §3

[5] = tested on: BT474 cells (HER2 positive breast cancer cells); assay: Cell viability assay (CCK8), BT474 cells; settings: Homo sapiens, BT-474, Table 10, BT474, 72 hours, read-out: IC50 (half inhibitory concentration)
Excerpt: as §2
as §3, with “instructions. The growth inhibition curve of the compounds on cells were plotted by Prism GraphPad, and the compounds IC50 calculated from it.” for “instructions.”
The cell viability assays were taken to determine the anti-tumor activity of these indicated compounds in BT474 cells, which can overexpress HER2 protein. The cells were treated with the gradient concentration of these compounds (the maximum concentration: 10 μM; 3-fold dilution ratio, 10 concentration gradients) for 72 hours and then incubated with the CCK8 reagent to determine the cell viability.

[6] = HCC827 (Exon19 Del), WST (CCK8)
[7] = H1975 (L858R + T790M), 72 hours, WST
[8] = PC9Brac1 (Ex19del + T790M), 72 hours, WST
[9] = Table 6, canertinib-based compounds, HCC827 (Exon19 Del), WST
[10] = Table 6, canertinib-based compounds, PC9 (Exon19 Del), WST
[11] = Table 7, canertinib-based compounds, H1975 (L858R + T790M)
[12] = Table 7, canertinib-based compounds, PC9Brca1 (Ex19del + T790M)
[13] = Table 8, osimertinib-based compounds, HCC827, WST
[14] = Table 8, osimertinib-based compounds, PC9, WST
[15] = Table 8, osimertinib-based compounds, H1975, 72 hours, WST
[16] = Table 8, osimertinib-based compounds, Pc9Brc1, 72 hours, WST

| Structure (SMILES) | IC50 [1, 6] [nM] | IC50 ([2]; PC9 (Exon19 Del), WST (CCK8)) [nM] | IC50 [3, 7] [nM] | IC50 [4, 8] [nM] | IC50 [5] [nM] | IC50 [1, 13] [nM] | IC50 [2, 14] [nM] | IC50 [3, 15] [nM] | IC50 [4, 16] [nM] | further results |
| --- | --- | --- | --- | --- | --- | --- | --- | --- | --- | --- |
| C=CC(=O)Nc1cc2c(Nc3ccc(F)c(Cl)c3)ncnc2cc1OCCCN1CCC(N2CCN(CCCCCCNc3cccc4c3C(=O)N(C3CCC(=O)NC3=O)C4=O)CC2)CC1 (centres unmarked) [SIAIS262183, N-(4-((3-chloro-4-fluorophenyl)amino)-7-(3-(4-(4-(6-((2-(2,6-dioxopiperidin-3-yl)-1,3-dioxoisoindolin-4-yl)amino)hexyl)piperazin-1-yl)piperidin-1-yl)propoxy)quinazolin-6-yl)acrylamide] | – | – | – | – | 11.9 | – | – | – | – | IC50 [3, 11]: 250 nM; IC50 [4, 12]: 1060 nM |
| C=CC(=O)Nc1cc(Nc2nccc(-c3cn(C)c4ccccc34)n2)c(OC)cc1N(C)CCN(C)CCCCCCCCCSc1cccc2c1CN(C1CCC(=O)NC1=O)C2=O (centres unmarked) [SIAIS337085, N-(2-((2-((9-((2-(2,6-dioxopiperidin-3-yl)-1-oxoisoindolin-4-yl)thio)nonyl)(methyl)amino)ethyl)(methyl)amino)-4-methoxy-5-((4-(1-methyl-1H-indol-3-yl)pyrimidin-2-yl)amino)phenyl)acrylamide] | – | – | – | – | – | 6 | 143 | 462 | 239 | – |
| C=CC(=O)Nc1cc(Nc2nccc(-c3cn(C)c4ccccc34)n2)c(OC)cc1N(C)CCN(C)CCCCCCCCCCSc1cccc2c1CN(C1CCC(=O)NC1=O)C2=O (centres unmarked) [SIAIS337086, N-(2-((2-((10-((2-(2,6-dioxopiperidin-3-yl)-1-oxoisoindolin-4-yl)thio)decyl)(methyl)amino)ethyl)(methyl)amino)-4-methoxy-5-((4-(1-methyl-1H-indol-3-yl)pyrimidin-2-yl)amino)phenyl)acrylamide] | – | – | – | – | – | 3 | 64 | 203 | 194 | – |
| C=CC(=O)Nc1cc(Nc2nccc(-c3cn(C)c4ccccc34)n2)c(OC)cc1N(C)CCN(C)CCCCCCCCCCCSc1cccc2c1CN(C1CCC(=O)NC1=O)C2=O (centres unmarked) [SIAIS337087, N-(2-((2-((11-((2-(2,6-dioxopiperidin-3-yl)-1-oxoisoindolin-4-yl)thio)undecyl)(methyl)amino)ethyl)(methyl)amino)-4-methoxy-5-((4-(1-methyl-1H-indol-3-yl)pyrimidin-2-yl)amino)phenyl)acrylamide] | – | – | – | – | – | 91 | 320 | 242 | 598 | – |
| C=CC(=O)Nc1cc(Nc2nccc(-c3cn(C)c4ccccc34)n2)c(OC)cc1N(C)CCN(C)Cc1ccc(CSc2cccc3c2CN(C2CCC(=O)NC2=O)C3=O)cc1 (centres unmarked) [SIAIS337088, N-(2-((2-((4-(((2-(2,6-dioxopiperidin-3-yl)-1-oxoisoindolin-4-yl)thio)methyl)benzyl)(methyl)amino)ethyl)(methyl)amino)-4-methoxy-5-((4-(1-methyl-1H-indol-3-yl)pyrimidin-2-yl)amino)phenyl)acrylamide] | – | – | – | – | – | 5 | 302 | 239 | 662 | – |
| C=CC(=O)Nc1cc(Nc2nccc(-c3cn(C)c4ccccc34)n2)c(OC)cc1N(C)CCN(C)CCCC#Cc1cccc2c1CN(C1CCC(=O)NC1=O)C2=O (centres unmarked) [SIAIS337089, N-(2-((2-((5-(2-(2,6-dioxopiperidin-3-yl)-1-oxoisoindolin-4-yl)pent-4-yn-1-yl)(methyl)amino)ethyl)(methyl)amino)-4-methoxy-5-((4-(1-methyl-1H-indol-3-yl)pyrimidin-2-yl)amino)phenyl)acrylamide] | – | – | – | – | – | 15 | 82 | 16 | 107 | – |

Further lines, with some results ahead:

| IC50 [1, 6] [nM] | IC50 ([2]; PC9 (Exon19 Del), WST (CCK8)) [nM] | IC50 [3, 7] [nM] | IC50 [4, 8] [nM] | IC50 [5] [nM] | IC50 [1, 13] [nM] | IC50 [2, 14] [nM] | IC50 [3, 15] [nM] | IC50 [4, 16] [nM] | Structure (SMILES) | further results |
| --- | --- | --- | --- | --- | --- | --- | --- | --- | --- | --- |
| 3 | 7.9 | 952 | 481 | 39.3 | – | – | – | – | COc1cc2ncnc(Nc3ccc(F)c(Cl)c3)c2cc1NC(=O)/C=C/CN1CCC(NC(=O)CCCCCCNc2cccc3c2C(=O)N(C2CCC(=O)NC2=O)C3=O)CC1 (centres unmarked) [SIAIS249085, (E)-N-(1-(4-((4-((3-chloro-4-fluorophenyl)amino)-7-methoxyquinazolin-6-yl)amino)-4-oxobut-2-en-1-yl)piperidin-4-yl)-7-((2-(2,6-dioxopiperidin-3-yl)-1,3-dioxoisoindolin-4-yl)amino)heptanamide] | – |
| 2.4 | 6.7 | 511 | 260 | 0.3 | – | – | – | – | COc1cc2ncnc(Nc3ccc(F)c(Cl)c3)c2cc1NC(=O)/C=C/CN1CCC(N2CCN(C(=O)CNc3cccc4c3C(=O)N(C3CCC(=O)NC3=O)C4=O)CC2)CC1 (centres unmarked) [SIAIS262036, (E)-N-(4-((3-chloro-4-fluorophenyl)amino)-7-methoxyquinazolin-6-yl)-4-(4-(4-(2-((2-(2,6-dioxopiperidin-3-yl)-1,3-dioxoisoindolin-4-yl)amino)acetyl)piperazin-1-yl)piperidin-1-yl)but-2-enamide] | – |
| 4 | 7.2 | 550 | 488 | 33.7 | – | – | – | – | COc1cc2ncnc(Nc3ccc(F)c(Cl)c3)c2cc1NC(=O)/C=C/CN1CCC(NC(=O)CCCCCCSc2cccc3c2CN(C2CCC(=O)NC2=O)C3=O)CC1 (centres unmarked) [SIAIS262115, (E)-N-(1-(4-((4-((3-chloro-4-fluorophenyl)amino)-7-methoxyquinazolin-6-yl)amino)-4-oxobut-2-en-1-yl)piperidin-4-yl)-7-((2-(2,6-dioxopiperidin-3-yl)-1-oxoisoindolin-4-yl)thio)heptanamide] | – |
| 3 | 3.8 | 299 | 205 | 63.2 | – | – | – | – | COc1cc2ncnc(Nc3ccc(F)c(Cl)c3)c2cc1NC(=O)/C=C/CN1CCC(NC(=O)CCCCCCCCCCSc2cccc3c2CN(C2CCC(=O)NC2=O)C3=O)CC1 (centres unmarked) [SIAIS262118, (E)-N-(1-(4-((4-((3-chloro-4-fluorophenyl)amino)-7-methoxyquinazolin-6-yl)amino)-4-oxobut-2-en-1-yl)piperidin-4-yl)-11-((2-(2,6-dioxopiperidin-3-yl)-1-oxoisoindolin-4-yl)thio)undecanamide] | – |
| – | – | – | – | 48 | – | – | – | – | C=CC(=O)Nc1cc2c(Nc3ccc(F)c(Cl)c3)ncnc2cc1OCCCN1CCN(C(=O)CCCCSc2cccc3c2CN(C2CCC(=O)NC2=O)C3=O)CC1 (centres unmarked) [SIAIS262122, N-(4-((3-chloro-4-fluorophenyl)amino)-7-(3-(4-(5-((2-(2,6-dioxopiperidin-3-yl)-1-oxoisoindolin-4-yl)thio)pentanoyl)piperazin-1-yl)propoxy)quinazolin-6-yl)acrylamide] | IC50 [1, 9]: 4.1 nM; IC50 [2, 10]: 23.1 nM; IC50 [3, 11]: 97 nM; IC50 [4, 12]: 474 nM |
| – | – | – | – | 48.9 | – | – | – | – | C=CC(=O)Nc1cc2c(Nc3ccc(F)c(Cl)c3)ncnc2cc1OCCCN1CCN(C(=O)CCCCCSc2cccc3c2CN(C2CCC(=O)NC2=O)C3=O)CC1 (centres unmarked) [SIAIS262123, N-(4-((3-chloro-4-fluorophenyl)amino)-7-(3-(4-(6-((2-(2,6-dioxopiperidin-3-yl)-1-oxoisoindolin-4-yl)thio)hexanoyl)piperazin-1-yl)propoxy)quinazolin-6-yl)acrylamide] | IC50 [1, 9]: 2 nM; IC50 [2, 10]: 8.3 nM; IC50 [3, 11]: 143 nM; IC50 [4, 12]: 380 nM |
